Data on 8 molecules can be found in paper PMC11459619, “Evaluating the amoeba thioredoxin reductase selenoprotein as potential drug target for treatment of Acanthamoeba infections” (International Journal for Parasitology: Drugs and Drug …, 2024).

Like-named read-outs stand apart in the source and are kept apart here. A value given as a limit tells only on which side of the number the result lay.

Series [1] has as its target T1, AcTrxR-L (Acanthamoeba castellanii, UniProt L8HG59).
T1 construct: gene ACA1_153040; recombinant selenoprotein from E. coli C321.ΔA (pABC2a, UAG as Sec codon, SECIS element); N-terminal His-SUMO removed with ULP1; homodimer with one FAD per subunit
T1 sequence (L8HG59 1-526): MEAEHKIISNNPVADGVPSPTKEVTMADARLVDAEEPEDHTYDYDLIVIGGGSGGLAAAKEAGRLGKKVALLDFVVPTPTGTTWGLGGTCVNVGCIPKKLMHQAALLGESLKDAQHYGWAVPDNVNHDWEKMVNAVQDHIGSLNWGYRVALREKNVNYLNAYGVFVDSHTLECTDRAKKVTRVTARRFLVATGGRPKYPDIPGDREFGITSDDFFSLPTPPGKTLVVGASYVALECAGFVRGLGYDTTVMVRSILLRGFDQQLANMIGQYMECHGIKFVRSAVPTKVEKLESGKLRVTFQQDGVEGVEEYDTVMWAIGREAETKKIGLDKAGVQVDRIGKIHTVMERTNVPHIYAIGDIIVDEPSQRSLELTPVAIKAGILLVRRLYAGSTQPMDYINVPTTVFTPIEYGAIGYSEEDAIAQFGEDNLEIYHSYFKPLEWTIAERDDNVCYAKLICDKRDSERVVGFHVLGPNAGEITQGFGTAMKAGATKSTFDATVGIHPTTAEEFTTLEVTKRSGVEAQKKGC
The experiment in a line: DTNB reduction at 412 nm (250 μM NADPH, 1 mM DTNB, TE buffer) after preincubation of 50 nM AcTrxR-L with inhibitor, 250 μM NADPH and 0.01 mg/ml BSA for 30 min (10 min in results), diluted 5-fold, without desalting. Particulars: n = 2; read-out: IC50 (μM), Not desalted. The series is classed as biochemical. As for the experimental part: (§1) Then, the reaction was diluted 5-fold and 200 μl was desalted using Zeba™ Spin Desalting Columns and Plates, 40K MWCO (Thermo Scientific, 87767), whereupon 100 μl of the reactions, either desalted or not desalted, were transferred to each well of a 96 well plate. Subsequently, 250 μM NADPH and 1 mM DTNB were added to each well. The TNB^− formation at A412 nm was followed by a spectrophotometer and experiments were carried out in duplicates. The IC50 values were determined based on the nonlinear regression (curve fit), dose-response-inhibitor equation, log (inhibitor) vs. normalized response (variable slope) using GraphPad Prism.

The target in series [2] is T1, AcTrxR-L. The experiment in a line: DTNB reduction at 412 nm (250 μM NADPH, 1 mM DTNB, TE buffer) after preincubation of 50 nM AcTrxR-L with inhibitor, 250 μM NADPH and 0.01 mg/ml BSA for 30 min (10 min in results), diluted 5-fold and desalted to remove free inhibitor. The format is biochemical. To be noted: n = 2. The method, then: as §1
In series [3] the test system is AcTrxR-L. The experiment in a line: Inhibition of AcTrxR-L, direct DTNB reduction assay. The format is biochemical, Acanthamoeba castellanii. Particulars: for IC50: DTNB reduction; for Reversibility of AcTrxR-L inhibition after desalting: removal of compound from solution by desalting. The method, then:
as §1, with “The reaction consisted of incubating 50 nM AcTrxR-L with 0.5–10 μM of auranofin, TRi-1 or TRi- 2, or 1% v/v DMSO, 250 μM NADPH and 0.01 mg/ml BSA in TE buffer for 30 min ([Fata et al., 2022]). Then,” for “Then,”

The subject of series [4] is human corneal epithelial cells (HCECs). Description: Cytotoxicity test on human corneal epithelial cells (CellTiter 96 AQueous One). The series is classed as cell-based. To be noted: HCEC; for TD50 24 h: 24 h of treatment; for TD50 48 h: 48 h of treatment; for TD50 72 h: 72 h of treatment. The method, then: Cytotoxicity of the compounds towards human corneal epithelial cells (HCECs) (Innoprot, ref. P10871) was determined ([Loufouma Mbouaka et al., 2023]) in 96-well microplates. The HCECs (1 × 10^4 cells/well) were grown in 100 μL of corneal epithelial cell medium (CEpiCM) (Innoprot, ref. P60131) supplemented with 1% of corneal epithelial cell growth supplement (CEpiCGS), 2% of fetal bovine serum (FBS) and 1% antibiotic mix: 10,000 U penicillin, 10 mg streptomycin and 25 μg amphotericin B per milliliter. After overnight incubation, cytotoxicity was evaluated adding 20 μL of CellTiter 96® AQueous One Solution Reagent (Promega, Madison, WI, USA). After 1 h of incubation at 37 °C, the absorbance at 490 nm was read using a spectrophotometer (Tecan, Spark 10M, Switzerland).
The TD50 values were calculated using the same method as the IC50 values with GraphPad Prism. Moreover, the therapeutic index was determined as the ratio of TD50 to IC50 ([Muller and Milton, 2012]).

For series [5], the system named is Acanthamoeba strain Neff trophozoites. The experiment in a line: In vitro amoebicide assay, trypan blue direct counting. The format is cell-based, Acanthamoeba castellanii. The method, then: Acanthamoeba castellanii strain Neff (ATCC® 30010™) genotype T4 was used for all experiments. The amoebae were grown in peptone yeast extract-glucose medium (PYG) in 75 cm^2 tissue culture flasks at 25 °C with weekly medium changes as described previously ([Köhsler et al., 2022]).
The amoebicidal activity was assessed by direct counting, using trypan blue ([Martín-Pérez et al., 2021]) and assayed in sterile 96-well microplates. Diverse drug concentrations (0–20 μM) were prepared via serial dilutions in DMSO, keeping total DMSO at 5% in the control well and in the drug solution wells ranging 5–3%. Amoebae from log-phase cultures (5 × 10^4 trophozoites/well) were inoculated into the microplates and the trophozoites were resuspended in PYG medium. Drug assays contained 100 μL of trophozoites solution, 90 μL of PYG media and 10 μL of the drug solution per well. The growth control (positive control) included 100 μL of trophozoites solution, 90 μL of PYG medium and 10 μL of DMSO. Each drug concentration and control were investigated in triplicates and each experiment was repeated in two independent setups. The plates were incubated at 25 °C during 4, 24, 48 and 72 h. Samples were placed in a Bürker-Türk counting chamber. The IC50 was calculated using GraphPad Prism, as explained previously.

The subject of the next series is AcTrxR-S. On the set-up: method as in Leitsch et al., 2021. To be noted: ref Leitsch et al., 2021; read-out: IC50 enzymatic activity of AcTrxR-S; cited from earlier work.
The test system of series [6] is different strains of Acanthamoeba. To be noted: ref Feng et al. (2020); read-out: IC50 against Acanthamoeba trophozoites; cited from earlier work.
The test system of a further series is Schistosoma mansoni. On the set-up: method as in Kuntz et al., 2007. To be noted: treatment of infected mice; ref Kuntz et al., 2007; cited from earlier work.
Series [7] has as its system AcTrxR-L. The experiment in a line: Direct DTNB reduction assay. The format is biochemical, Acanthamoeba castellanii. The method, then: Unless stated otherwise, all enzyme assays for AcTrxR-L were based upon well-established selenoprotein TrxR assays, as outlined earlier ([Arnér, 2018]). Kinetic parameters of AcTrxR-L were determined with different biochemical assays in triplicates in cuvettes as previously described ([Fata et al., 2022]). First, the specific activity of AcTrxR-L was calculated from its NADPH-dependent DTNB reduction. The reaction mixture contained 10 nM AcTrxR-L, 250 μM NADPH, and 2.5 mM DTNB in TE buffer (50 mM Tris and 2 mM EDTA, pH 7.5), and the reduction of DTNB was monitored by measuring the formation of the TNB^− anion at A412 nm on a spectrophotometer. Each DTNB is reduced into 2 molecules of TNB^− with extinction coefficient of 13,600 M^−1cm^−1 at 412 nm and the specific activity of the enzyme was calculated as Unit per mg (U/mg), with 1 U (μmol/min) defined as conversion of 1 μmol of DTNB substrate per minute.
Apparent Michaelis-Menten parameters were in all cases calculated based on the nonlinear fit of the velocity vs substrate concentration curves to the Michaelis-Menten equation by using GraphPad Prism.

In the next series the test system is HCEC. On the set-up: method as in Martín-Pérez et al., 2019. To be noted: ref Martín-Pérez et al., 2019; read-out: IC50 against HCEC; cited from earlier work.
Substrate in series [8]: O=C(O)c1cc(SSc2ccc([N+](=O)[O-])c(C(=O)O)c2)ccc1[N+](=O)[O-]
The experiment in a line: purified protein, by the assay type. Particulars: pH 7.5.

The mark [9] stands for this setting: after removal of the inhibitors by desalting, read-out: IC50 Desalted.
Setting [10] is: in presence of the inhibitors, 50 nM AcTrxR-L, read-out: IC50 Not desalted.
Setting [11] is: 48 h of treatment, read-out: IC50 48 h.
[12] abbreviates: 72 h of treatment, read-out: IC50 72 h.

As a reminder, the IC50 is the concentration that inhibits the measured activity by half. With “thioredoxin reductase inhibitor -2 [TRi-2]”, the IC50 on AcTrxR-L [1] and on AcTrxR-L [2] was above 10 µM throughout.
Take `COc1ccc([N+](=O)[O-])c(S(=O)(=O)c2ccc(Cl)cc2)n1` [TRi-1, thioredoxin reductase inhibitor -1]: the figures for the IC50 at AcTrxR-L [1] and on AcTrxR-L [2] were 0.36 ± 0.07 µM and 0.37 ± 0.11 µM, respectively.
Consider `COc1ccc([N+](=O)[O-])c(S(=O)(=O)c2ccc(Cl)cc2)n1` [TRi-1], for which the IC50 in the series with AcTrxR-L [3] (setting [9]) stood at 370 ± 110 nM; with AcTrxR-L [3] (setting [10]), 360 ± 70 nM; in series [5] (24 h of treatment, read-out: IC50 24 h), 17700 ± 1640 nM; in series [5] (setting [11]) it was 7650 ± 1710 nM; in series [5] (setting [12]), 4290 ± 862 nM. Further, the “Reversibility of AcTrxR-L inhibition after desalting” value with AcTrxR-L [3] was “irreversibly inhibit the enzyme”. Moreover, the “TD50 24 h” value in series [4] is 8.84 ± 0.044 µM. Besides, in series [4], the “TD50 48 h” value was determined as 8.40 ± 0.168 µM. For the same molecule, in series [4], the “TD50 72 h” value amounted to 8.40 ± 0.003 µM.
Consider `CC[PH](CC)(CC)[Au][S][C@@H]1O[C@H](COC(C)=O)[C@@H](OC(C)=O)[C@H](OC(C)=O)[C@H]1OC(C)=O` [Auranofin, auranofin (Ridaura), gold-based compound], for which the results for the IC50 at AcTrxR-L [1] and on AcTrxR-L [2] were 0.32 ± 0.39 µM and 0.32 ± 0.55 µM, respectively.
For the molecule `CC(=O)OC[C@H]1O[C@@H]([S-])[C@H](OC(C)=O)[C@@H](OC(C)=O)[C@@H]1OC(C)=O.CCP(CC)CC.[Au+]` [Auranofin, auranofin], the IC50 was 320 ± 550 nM in the series on AcTrxR-L [3] (setting [9]); 320 ± 390 nM with AcTrxR-L [3] (setting [10]); 216 nM with AcTrxR-S; 21100 ± 11000 nM in series [5] (setting [11]); 5640 ± 1350 nM in series [5] (setting [12]); 5790 nM in [6]. Further, the “Reversibility of AcTrxR-L inhibition after desalting” value in the series with AcTrxR-L [3] is recorded as “irreversibly inhibit the enzyme”. Further, the “TD50 24 h” value in series [4] was found to be 2.79 ± 0.076 µM. Further, the “TD50 48 h” value in series [4] was 1.18 ± 0.103 µM. For the same molecule, the “TD50 72 h” value in series [4] came out at 0.97 ± 0.045 µM. In addition, the “Reduction of worm burden” value in the series on Schistosoma mansoni is 60%.
As usually defined, the Km is the substrate concentration at which the rate is half of its maximum. For orientation: Vmax means the top rate of the reaction or transport when substrate is in excess. Usually kcat stands for the number of substrate molecules converted per active site and unit of time at saturation. Regarding `O=C(O)c1cc(SSc2ccc([N+](=O)[O-])c(C(=O)O)c2)ccc1[N+](=O)[O-]` [DTNB], in the series with AcTrxR-L [7], the Km came out at 384 ± 63.7 µM, the maximal velocity (Vmax) is 238.1 ± 19.01 µmol/min/mg and the catalytic constant (kcat) amounted to 79.37 s⁻¹.
Regarding `[H]/N=C(\N/C(=N/[H])NCCCCCCNC(=N)NC(=N)Nc1ccc(Cl)cc1)Nc1ccc(Cl)cc1` [chlorhexidine], the half-maximal inhibitory concentration (IC50) with HCEC is 1580 nM.

B1: AcTrxR-L (Acanthamoeba castellanii str. Neff) (protein)
chain: MEAEHKIISNNPVADGVPSPTKEVTMADARLVDAEEPEDHTYDYDLIVIGGGSGGLAAAKEAGRLGKKVALLDFVVPTPTGTTWGLGGTCVNVGCIPKKLMHQAALLGESLKDAQHYGWAVPDNVNHDWEKMVNAVQDHIGSLNWGYRVALREKNVNYLNAYGVFVDSHTLECTDRAKKVTRVTARRFLVATGGRPKYPDIPGDREFGITSDDFFSLPTPPGKTLVVGASYVALECAGFVRGLGYDTTVMVRSILLRGFDQQLANMIGQYMECHGIKFVRSAVPTKVEKLESGKLRVTFQQDGVEGVEEYDTVMWAIGREAETKKIGLDKAGVQVDRIGKIHTVMERTNVPHIYAIGDIIVDEPSQRSLELTPVAIKAGILLVRRLYAGSTQPMDYINVPTTVFTPIEYGAIGYSEEDAIAQFGEDNLEIYHSYFKPLEWTIAERDDNVCYAKLICDKRDSERVVGFHVLGPNAGEITQGFGTAMKAGATKSTFDATVGIHPTTAEEFTTLEVTKRSGVEAQKKGC
Usually kcat/Km stands for the turnover number divided by the Michaelis constant. B1: in series [8], the Km stood at 384.1 ± 63.74 µM, the maximum rate (Vmax) turned out to be 238 µmol/min/mg, the catalytic constant (kcat) was 79.4 s⁻¹ and the kcat/Km was 200000 M⁻¹ s⁻¹.
